Results on one compound are retold here after paper PMC13164762, “Development and Validation of an LC-MS/MS Method for the Quantitation of JNJ-64619178 (JNJ) in Mouse Plasma: Characterization of In Vitro and In Vivo Pharmacokinetic Properties” (Molecules, 2026).

Data set [1] in a line: Microsomal metabolic stability, human liver microsomes. The data set is classed as in vitro ADME. How it is done:
Mouse and human liver microsomes were used for the metabolic stability assay. In brief, the incubation mixture (500 µL) consisted of phosphate-buffered saline (PBS) (100 mM, pH 7.4), microsomal protein (0.5 mg mL^−1), magnesium chloride (10 mM), and NADPH (2 mM). Following pre-incubation of the above reaction mixture for 10 min at 37 °C, the reaction was initiated by spiking JNJ at a final 1 µg mL^−1 concentration. Alongside the test compound, testosterone at a final concentration of 1 µg mL^−1 was incubated as a positive control. All experiments were performed in triplicate. At sampling times of 0, 5, 10, 20, 30, 45, and 60 min, 40 µL samples were collected and quenched with 300 µL ice-chilled acetonitrile supplemented with 10 µL IS. Simultaneously, samples from NADPH-free negative controls were also withdrawn and processed accordingly to confirm any non-enzymatic degradation. Finally, after 1 h of collection, samples were vortexed at 1000 rpm for 1 min and centrifuged at 2200× g for 15 min, and the collected supernatant was analyzed using LC-MS/MS.
The natural logarithm of the area ratio versus time was plotted, and the slope of the curve was calculated by a linear regression equation to generate the elimination rate constant, k (min^−1). CLint was calculated by the following equation:(2) CLint=0.693/t1/2×Volume of incubation mixture (mL)/microsomal protein (mg)
CLH,int of JNJ in the mouse and human liver was then estimated from CLint using the scaling factor.(3) CLH,int=CLint×Microsomal protein (mg)/Liver (g)×Liver weight (g)/Body weight (kg)
Here, 45 and 32 mg of microsomal protein per g of liver weight were applied, and 60 and 25 g of liver weight per kg body weight were used for mouse and human tissue, respectively.

The nature of data set [2]: Parallel artificial membrane permeability assay (PAMPA). Type of data set: physicochemical. As to conditions: 5 µg mL^−1 in PBS, room temperature, read-out: apparent permeability (Papp), PAMPA. As to the method: A Corning® BioCoat™ Pre-coated PAMPA Plate System, obtained from Corning Life Sciences (Glendale, AZ, USA), was used for the noncell-based permeability assay. As per the manufacturer’s instructions, the PAMPA plate was warmed at room temperature for 30 min to make it ready for use. A JNJ stock solution was prepared in PBS at a concentration of 5 µg mL^−1. Then, 300 µL of that prepared solution was poured into the donor side and 200 µL PBS was added to the acceptor side of each well in triplicate. After incubation for 5 h at room temperature, 50 µL samples were collected separately from the donor and acceptor chamber. Finally, samples were processed following the extraction procedure and analyzed using LC-MS/MS analysis. The apparent permeability coefficient is determined using the following formula:(8) Papp=−ln[1 − Cat/Ceq]/A ∗ 1/Vd + 1/Va∗t where Papp = apparent permeability in cm s^−1, Co = initial compound concentration in donor well (µg mL^−1), Cd(t) = compound concentration in donor well at time t (µg mL^−1), Ca(t) = compound concentration in acceptor well at time t (µg mL^−1), Vd = donor well volume (0.3 mL), Va = acceptor well volume (0.2 mL), A = filter area (0.3 cm^2), and t = incubation time (18,000 s). Ceq is calculated by(9) Ceq=[Cd(t)∗Vd+Ca(t)∗Va] /(Vd+Va)

The nature of data set [3]: Caco-2 permeability study. The data set is classed as in vitro ADME, human. The conditions noted are these: human, Caco-2, absorptive direction (apical to basal), read-out: apparent permeability (Papp), Caco-2. As to the method: (§1) Human colon carcinoma cells (Caco-2) were obtained from ATCC (American Type Culture Collection) (Manassas, VA, USA). Caco-2 cells were cultured in Dulbecco’s Modified Eagle’s Medium (DMEM), supplemented with 10% fetal bovine serum, 1% nonessential amino acids, 100 U mL^−1 penicillin, and 100 µg mL^−1 streptomycin. The cells were split upon reaching the 80–90% confluence to make them ready to seed. Afterwards, the cells were seeded at a density of 80,000 cells/well in a 12-well tissue culture plate with a 0.4 µm pore size, purchased from CELLTREAT Scientific Products (Pepperell, MA, USA), and incubated at 37 °C in an incubator with 5% CO2 conditions. […] The integrity of the monolayer was evaluated by measuring the transepithelial electrical resistance (TEER) value using EVOM2™ Epithelial Voltohmmeter purchased from World Precision Instruments Inc. (Sarasota, FL, USA).
(§2) JNJ was spiked at a final concentration of 10 µM to the apical side in a volume of 500 µL HBSS-HEPES (10 mM) buffer along with the positive control (propranolol and atenolol) in respective wells. […] After determined timepoints (0, 30, 60, 90, and 120 min), 100 µL aliquots were collected from the apical or basolateral sites, each time replacing with an equal volume of blank buffer. […]

For data set [4], the system named is Caco-2 cell monolayer. The data set is described as follows: Caco-2 permeability study. The conditions noted are these: absorptive direction (apical to basal), 10 µM. Type of data set: in vitro ADME, human. As to the method:
as §1, §2

The nature of data set [5]: Stability of JNJ in mouse plasma at different storage conditions. Type of data set: in vitro ADME. As to the method: The stability of JNJ in mouse plasma was evaluated at three replicates of LQC and HQCs in different storage conditions. Studies were conducted with the study of bench-top stability for 4 h at room temperature, freeze–thaw stability (three freeze–thaw cycles), autosampler stability (4 °C for 48 h) and long-term stability (at −80 °C for 1 month). Samples were considered stable if the % drug remaining after storage conditions was within ±15% compared to the freshly prepared QC samples.

In data set [6] the test system is HD-MB cell line. As to conditions: method and reference not given; cited from earlier work.

The structures appear in SMILES notation. Values joined by “and” are separate entries in the source; they are usually repeats but may differ in a detail not shown here. Equal values may be shown once.

Turning to `Nc1nc2cc(CC[C@H]3C[C@@H](n4ccc5c(N)ncnc54)[C@H](O)[C@@H]3O)ccc2cc1Br` [JNJ, JNJ-64619178], in data set [1] (HLM, mean ± SD, n = 3), the “microsomal intrinsic clearance (CLint)” value is recorded as 0.01 ± 0.001 mL min^−1 mg^−1 protein. In addition, in data set [1] (HLM, scaled from CLint (32 mg protein/g liver, 25 g liver/kg)), the “hepatic intrinsic clearance (CLH,int)” value was 7 ± 0.6 mL min^−1 kg^−1 body weight and 7 ± 0.5 mL min^−1 kg^−1 body weight. Also, the half-life at 1 µg mL^−1 in data set [1] (human, liver microsomes, pH 7.4, HLM, mean ± SD, n = 3, read-out: Half-life (t1/2)) was found to be 2.47 ± 0.167 h. The remaining at 1 h, 1 µg mL^−1 in data set [1] (human, liver microsomes, pH 7.4, HLMs, NADPH, 1 µg mL^−1, n = 3, read-out: percent remaining concentration after 1 h incubation) is 72 ± 2%. The Papp at 5 h, 5 µg mL^−1 in data set [2] is 7 ± 4 ×10⁻⁶ cm/s. For the same compound, the Papp A→B at 120 min, 10 µM in data set [3] worked out at 3.4 ± 0.4 ×10⁻⁶ cm/s. Moreover, in data set [4], the “apparent permeability (Papp), Caco-2” value is given as 3 ± 0.4 (×10^−6) cm s^−1. Moreover, in data set [5] (HQC (375 ng mL^−1)), the “% Stability Recoveries (Mean ± SD), Autosampler (4 °C, 48 h)” value is listed as 110 ± 6%; the “% Stability Recoveries (Mean ± SD), Bench-Top (RT, 4 h)” value was 101 ± 15%; the “% Stability Recoveries (Mean ± SD), Freeze–Thaw (−80 ± 5 °C After 3 Cycle)” value came out at 94 ± 8%; the “% Stability Recoveries (Mean ± SD), Long-Term Stability (−80 ± 5 °C, 30 Days)” value is given as 95 ± 8%. For the same compound, in data set [5] (LQC (0.5 ng mL^−1)), the “% Stability Recoveries (Mean ± SD), Autosampler (4 °C, 48 h)” value turned out to be 110 ± 7%; the “% Stability Recoveries (Mean ± SD), Bench-Top (RT, 4 h)” value came to 91 ± 9%; the “% Stability Recoveries (Mean ± SD), Freeze–Thaw (−80 ± 5 °C After 3 Cycle)” value was determined as 93 ± 4%; the “% Stability Recoveries (Mean ± SD), Long-Term Stability (−80 ± 5 °C, 30 Days)” value amounted to 97 ± 9%. In data set [6], the IC50 is 1.7 µM and the “In Vitro IC50” value was 0.821 µg/mL.
